From patent publication US20220105150A1, “AMPHIPATHIC ALPHA-HELICAL ANTIMICROBIAL PEPTIDES TREAT INFECTIONS BY GRAM-NEGATIVE PATHOGENS” (priority 2019, published 2022)
Values after ≈ are worked out from the molar mass of the structure shown. Square brackets hold non-standard residues; d marks the D form. dOrn = NCCC[C@@H](N)C(=O)O; Dab = NCC[C@H](N)C(=O)O

How the values were obtained:
[1] = system: Acinetobacter baumannii isolates resistant to classical antibiotics; type: cell-based; conditions: isolates resistant to classical antibiotics
Description: Thus, shortening the number of carbon atoms between the side-chain amino group and the α-carbon atom from four (Lys) to one (diaminopropionic acid) had very little effect on antibacterial activity (Table 2). We also determined the antibacterial activity of our five AMPs against 20 additional Acinetobacter baumannii isolates from four continents, 12 different countries and 17 different cities that were resistant to 18 different antibiotics. […] Thus, it is very clear that changing the type of positively-charged residue on the polar face of these AMPs had very little effect on the antibacterial activities.

[2] = system: human red blood cells; experiment: Hemolytic activity on human red blood cells
Experimental: For comparison, the inventors also determined the hemolytic activity after 18 hours at 37° C. Hemolysis can be determined with red blood cells (RBC) from various species including human red blood cells (hRBC).
The coupling procedure used 5 equivalents of Fmoc-D-amino acid or Fmoc-L-amino acid and HCTU (O-(1H-6-chlorobenzotriazole-1-yl)-1,1,3,3-tetramethyluronium hexafluorophosphate) and 6-Cl-HOBt (1-hydroxy-6-chloro-benztriazole) at 4.5 equivalents in DMF (Fisher Scientific, Denver, Colo.) and N-diisopropylethylamine (DIPEA) 10 equivalents (Oakwood Products, Inc., Estill, S.C.) in N-methyl-2-pyrrolidinone (NMP) (Fisher Scientific, Denver, Colo.) with the first and second couplings at room temperature for 30 min each. The deprotection procedure (removal of Fmoc protecting group) was carried out by treatment of the resin with 0.1 M HOBt (1-hydroxybenzotriazole) in DMF with 20% piperidine for 30 min. […] The resin was removed by filtration and peptide was precipitated with ice-cooled ethyl ether on ice for 15 min. Ether was decanted, the peptide was washed twice with ether and redissolved in acetonitrile/water (1:1, with 0.2% TFA) and the solution lyophilized to obtain the crude peptide. • Analytical and Preparative Purification by Reversed-Phase Chromatography: Analytical RP-HPLC: Column, Luna C18 (2), 250×4.6 mm I.D., 5 μm particle size, 100 Å pore size from Phenomenex (Torrance, Calif.). Run conditions: linear AB gradient (1% acetonitrile/min, starting from 2% acetonitrile) at a flow-rate of 1 ml/min, where eluent A is 0.2% aq. TFA and eluent B is 0.18% TFA in acetonitrile; temperature, 30° C. Preparative RP-HPLC: Peptides were dissolved in 0.2% aq. TFA containing 2% acetonitrile to a final concentration of 10 mg/ml. Following filtration through a 0.45 μm Millipore filter and subsequently through a 0.22 μm filter, the peptide solutions were loaded onto the column via multiple 20-ml injections into a 20-ml injection loop at a flow-rate of 10 ml/min. Column, Luna C18 (2), 250×30 mm I.D., 5 um particle size, 100 Å pore size from Phenomenex. Run conditions: 2% acetonitrile/min gradient up to an acetonitrile concentration 10% below that required to elute the peptide during analytical RP-HPLC, then shallow gradient elution (0.05% or 0.1% acetonitrile/min depending on the complexity of impurities near the product of interest on the analytical run of the crude peptide) at a flow-rate of 10 ml/min (same eluents as shown above for analytical RP-HPLC); at room temperature. • Temperature Profiling of Peptides on Reversed-phase HPLC to Measure Dimerization and Oligomerization: Purified peptides were analyzed on an Agilent 1200 series liquid chromatograph for temperature profiling using a Zorbax 300 SB-C8 column (150 mm×2.1 mm I.D.; 5 μm particle size, 300 Å pore size) from Agilent Technologies. […] Temperature profiling was carried out on peptide mixtures run at each temperature in 2° C. increments from 5° C. to 41° C. and 10° C. increments from 5° C. to 75° C. Twenty minutes was allowed between runs for temperature equilibration. • Characterization of Helical Structure: The mean residue molar ellipticities of peptides were determined by circular dichroism (CD) spectroscopy, using a Jasco J-815 spectropolarimeter (Jasco Inc. Easton, Md., USA) at 5° C. under KP buffer (50 mM NaH2PO4/Na2HPO4/100 mM KCl, pH 7.0) as well as in the presence of an α-helix inducing solvent, 2,2,2-trifluoroethanol, TFE, (50 mM NaH2PO4/Na2HPO4/100 mM KCl, pH 7.0 buffer/50% TFE). A 10-fold dilution of an approximately 500 μM stock solution of the peptide analogs was loaded into a 0.1 cm quartz cell and its ellipticity scanned from 195 to 250 nm.

[3] = molecular target: the molecule itself; experiment: RP-HPLC temperature profiling, self-association (dimerization/oligomerization) against random coil control RC
[4] = molecular target: serum proteins; experiment: cell-based or functional assay

CC(=O)N[C@H](CCCCN)C(=O)N[C@H](CC(C)C)C(=O)N[C@@H](CCN)C(=O)N[C@H](CO)C(=O)N[C@H](CC(C)C)C(=O)N[C@H](CC(C)C)C(=O)N[C@@H](CCN)C(=O)N[C@@H](C(=O)N[C@H](CC(C)C)C(=O)N[C@H](CO)C(=O)N[C@@H](CCN)C(=O)N[C@H](C)C(=O)N[C@H](CCCCN)C(=O)N[C@H](C)C(=O)N[C@H](C)C(=O)N[C@H](CCCCN)C(=O)N[C@H](CC(C)C)C(=O)N[C@@H](CCN)C(=O)N[C@@H](C(=O)N[C@H](CC(C)C)C(=O)N[C@H](CC(C)C)C(=O)N[C@@H](CCN)C(=O)N[C@H](C)C(=O)N[C@H](CC(C)C)C(=O)N[C@H](CO)C(=O)N[C@@H](CCN)C(N)=O)[C@H](C)O)[C@H](C)O [D86(Lys^1-6Dab-1), Ac-KL(L-Dab)SLL(L-Dab)TLS(L-Dab)AKAAKL(L-Dab)TLL(L-Dab)ALS(L-Dab)-amide]
MIC 101887 [1]: 0.7 µM (≈ 1.89 µg/mL) | MIC 961997 [1]: 0.7 µM (≈ 1.89 µg/mL) | MIC 963618 [1]: 0.7 µM (≈ 1.89 µg/mL) | MIC 964304 [1]: 1.5 µM (≈ 4.05 µg/mL) | MIC 977751 [1]: 0.7 µM (≈ 1.89 µg/mL) | MIC 981653 [1]: 0.7 µM (≈ 1.89 µg/mL) | MIC 1002956 [1]: 0.7 µM (≈ 1.89 µg/mL) | MIC 1007660 [1]: 0.7 µM (≈ 1.89 µg/mL) | MIC 1010282 [1]: 0.7 µM (≈ 1.89 µg/mL) | MIC 1035166 [1]: 0.7 µM (≈ 1.89 µg/mL) | HC50 Fold Improvement [2]: >186 | hemolytic activity against red blood cells from four blood donors [2]: very little hemolytic activity | HC50 ([2]; red cells of human, 18 h): >742 µM

B1: D86(Lys1-6Dab-1) (peptide)
peptide: Ac-[dK][dL][Dab][dS][dL][dL][Dab][dT][dL][dS][Dab][dA][dK][dA][dA][dK][dL][Dab][dT][dL][dL][Dab][dA][dL][dS][Dab]-NH2
modifications: not fully specified
notes: Designed 26-residue AMP; Lys13/Lys16 specificity determinants; also called D86(6 Dab-1); D86-6 Dab-1
PA (self-association parameter) [3]: 0 min | MIC (µM) against A. baumannii strain 649 in 25% human serum (no serum: 0.7) [4]: 0.2 µM

B2: D102(Lys1Ser26-5Dab-1) (peptide)
peptide: Ac-[dK][dL][Dab][dS][dL][dL][Dab][dT][dL][dS][Dab][dA][dK][dA][dA][dK][dL][Dab][dT][dL][dL][Dab][dA][dL][dS][dS]-NH2
SMILES: CC(=O)N[C@H](CCCCN)C(=O)N[C@H](CC(C)C)C(=O)N[C@@H](CCN)C(=O)N[C@H](CO)C(=O)N[C@H](CC(C)C)C(=O)N[C@H](CC(C)C)C(=O)N[C@@H](CCN)C(=O)N[C@@H](C(=O)N[C@H](CC(C)C)C(=O)N[C@H](CO)C(=O)N[C@@H](CCN)C(=O)N[C@H](C)C(=O)N[C@H](CCCCN)C(=O)N[C@H](C)C(=O)N[C@H](C)C(=O)N[C@H](CCCCN)C(=O)N[C@H](CC(C)C)C(=O)N[C@@H](CCN)C(=O)N[C@@H](C(=O)N[C@H](CC(C)C)C(=O)N[C@H](CC(C)C)C(=O)N[C@@H](CCN)C(=O)N[C@H](C)C(=O)N[C@H](CC(C)C)C(=O)N[C@H](CO)C(=O)N[C@H](CO)C(N)=O)[C@H](C)O)[C@H](C)O
notes: Designed 26-residue AMP; Ser26; Lys13/Lys16 specificity determinants; also called D102(5 Dab-1)
PA (self-association parameter) [3]: 0 min | MIC (µM) against A. baumannii strain 649 in 25% human serum (no serum: 0.4) [4]: 0.7 µM

B3: D84(Lys1-6Lys-1) (peptide)
peptide: Ac-[dK][dL][dK][dS][dL][dL][dK][dT][dL][dS][dK][dA][dK][dA][dA][dK][dL][dK][dT][dL][dL][dK][dA][dL][dS][dK]-NH2
SMILES: CC(=O)N[C@H](CCCCN)C(=O)N[C@H](CC(C)C)C(=O)N[C@H](CCCCN)C(=O)N[C@H](CO)C(=O)N[C@H](CC(C)C)C(=O)N[C@H](CC(C)C)C(=O)N[C@H](CCCCN)C(=O)N[C@@H](C(=O)N[C@H](CC(C)C)C(=O)N[C@H](CO)C(=O)N[C@H](CCCCN)C(=O)N[C@H](C)C(=O)N[C@H](CCCCN)C(=O)N[C@H](C)C(=O)N[C@H](C)C(=O)N[C@H](CCCCN)C(=O)N[C@H](CC(C)C)C(=O)N[C@H](CCCCN)C(=O)N[C@@H](C(=O)N[C@H](CC(C)C)C(=O)N[C@H](CC(C)C)C(=O)N[C@H](CCCCN)C(=O)N[C@H](C)C(=O)N[C@H](CC(C)C)C(=O)N[C@H](CO)C(=O)N[C@H](CCCCN)C(N)=O)[C@H](C)O)[C@H](C)O
notes: Designed 26-residue AMP; Lys at 3, 7, 11, 18, 22, 26; Lys13/Lys16 specificity determinants; also called D84(6 Lys-1); D84-6 Lys-1
PA (self-association parameter) [3]: 5.9 min | MIC (µM) against A. baumannii strain 649 in 25% human serum (no serum: 0.3) [4]: 0.3 µM

B4: D86(K13A/K16A)-(Lys1-6Dab-1) (peptide)
peptide: Ac-[dK][dL][Dab][dS][dL][dL][Dab][dT][dL][dS][Dab][dA][dA][dA][dA][dA][dL][Dab][dT][dL][dL][Dab][dA][dL][dS][Dab]-NH2
SMILES: CC(=O)N[C@H](CCCCN)C(=O)N[C@H](CC(C)C)C(=O)N[C@@H](CCN)C(=O)N[C@H](CO)C(=O)N[C@H](CC(C)C)C(=O)N[C@H](CC(C)C)C(=O)N[C@@H](CCN)C(=O)N[C@@H](C(=O)N[C@H](CC(C)C)C(=O)N[C@H](CO)C(=O)N[C@@H](CCN)C(=O)N[C@H](C)C(=O)N[C@H](C)C(=O)N[C@H](C)C(=O)N[C@H](C)C(=O)N[C@H](C)C(=O)N[C@H](CC(C)C)C(=O)N[C@@H](CCN)C(=O)N[C@@H](C(=O)N[C@H](CC(C)C)C(=O)N[C@H](CC(C)C)C(=O)N[C@@H](CCN)C(=O)N[C@H](C)C(=O)N[C@H](CC(C)C)C(=O)N[C@H](CO)C(=O)N[C@@H](CCN)C(N)=O)[C@H](C)O)[C@H](C)O
notes: Control AMP without specificity determinants (Ala13/Ala16); also called D86(A13/A16-6Dab-1); D86(K13A/K16A-6 Dab-1)
PA (self-association parameter) [3]: 12.5 min | MIC (µM) against A. baumannii strain 649 in 25% human serum (no serum: 0.8) [4]: 3 µM | fold loss of antimicrobial activity in 25% human sera [4]: 4 fold

B5: D85(Lys1-6Orn-1) (peptide)
peptide: Ac-[dK][dL][dOrn][dS][dL][dL][dOrn][dT][dL][dS][dOrn][dA][dK][dA][dA][dK][dL][dOrn][dT][dL][dL][dOrn][dA][dL][dS][dOrn]-NH2
SMILES: CC(=O)N[C@H](CCCCN)C(=O)N[C@H](CC(C)C)C(=O)N[C@H](CCCN)C(=O)N[C@H](CO)C(=O)N[C@H](CC(C)C)C(=O)N[C@H](CC(C)C)C(=O)N[C@H](CCCN)C(=O)N[C@@H](C(=O)N[C@H](CC(C)C)C(=O)N[C@H](CO)C(=O)N[C@H](CCCN)C(=O)N[C@H](C)C(=O)N[C@H](CCCCN)C(=O)N[C@H](C)C(=O)N[C@H](C)C(=O)N[C@H](CCCCN)C(=O)N[C@H](CC(C)C)C(=O)N[C@H](CCCN)C(=O)N[C@@H](C(=O)N[C@H](CC(C)C)C(=O)N[C@H](CC(C)C)C(=O)N[C@H](CCCN)C(=O)N[C@H](C)C(=O)N[C@H](CC(C)C)C(=O)N[C@H](CO)C(=O)N[C@H](CCCN)C(N)=O)[C@H](C)O)[C@H](C)O
notes: Designed 26-residue AMP; also called D85(6Orn-1)
PA (self-association parameter) [3]: 4.1 min | MIC (µM) against A. baumannii strain 649 in 25% human serum (no serum: 0.4) [4]: 0.2 µM

B6: D101(Lys1Ser26-5Lys-1) (peptide)
peptide: Ac-[dK][dL][dK][dS][dL][dL][dK][dT][dL][dS][dK][dA][dK][dA][dA][dK][dL][dK][dT][dL][dL][dK][dA][dL][dS][dS]-NH2
SMILES: CC(=O)N[C@H](CCCCN)C(=O)N[C@H](CC(C)C)C(=O)N[C@H](CCCCN)C(=O)N[C@H](CO)C(=O)N[C@H](CC(C)C)C(=O)N[C@H](CC(C)C)C(=O)N[C@H](CCCCN)C(=O)N[C@@H](C(=O)N[C@H](CC(C)C)C(=O)N[C@H](CO)C(=O)N[C@H](CCCCN)C(=O)N[C@H](C)C(=O)N[C@H](CCCCN)C(=O)N[C@H](C)C(=O)N[C@H](C)C(=O)N[C@H](CCCCN)C(=O)N[C@H](CC(C)C)C(=O)N[C@H](CCCCN)C(=O)N[C@@H](C(=O)N[C@H](CC(C)C)C(=O)N[C@H](CC(C)C)C(=O)N[C@H](CCCCN)C(=O)N[C@H](C)C(=O)N[C@H](CC(C)C)C(=O)N[C@H](CO)C(=O)N[C@H](CO)C(N)=O)[C@H](C)O)[C@H](C)O
notes: Designed 26-residue AMP; Lys at 3, 7, 11, 18, 22; Ser26; Lys13/Lys16 specificity determinants; also called D101(5 Lys-1)
PA (self-association parameter) [3]: 6 min | MIC (µM) against A. baumannii strain 649 in 25% human serum (no serum: 0.7) [4]: 0.7 µM
